In patent US20060100431A1, “Biologically active compounds” (Amura Therapeutics Limited, priority 2002, published 2006) one finds Ki data, which are given here for 26 compounds.

Each structure is given as a SMILES string. Bounds are passed on as bounds.

This assay has as its target Wild-type cruzipain (Trypanosoma cruzi, UniProt P25779). The assay is described as follows: Trypanosoma cruzi cruzipain peptidase activity assay (Ki). The note with it: read-out: Ki, inhibitors of cruzain and cruzipains. In kind it is biochemical. Put shortly:
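Native cruzipain from T. cruzi Dm28 epimastigotes, 2.5 nM, in 100 mM sodium phosphate pH 6.75 with 1 mM EDTA and 10 mM L-cysteine, 25 °C, DMSO <1%. Rates taken from continuous fluorogenic substrate read; Ki by regression assuming reversible pure-competitive inhibition.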

Chain of Wild-type cruzipain (P25779 whole entry): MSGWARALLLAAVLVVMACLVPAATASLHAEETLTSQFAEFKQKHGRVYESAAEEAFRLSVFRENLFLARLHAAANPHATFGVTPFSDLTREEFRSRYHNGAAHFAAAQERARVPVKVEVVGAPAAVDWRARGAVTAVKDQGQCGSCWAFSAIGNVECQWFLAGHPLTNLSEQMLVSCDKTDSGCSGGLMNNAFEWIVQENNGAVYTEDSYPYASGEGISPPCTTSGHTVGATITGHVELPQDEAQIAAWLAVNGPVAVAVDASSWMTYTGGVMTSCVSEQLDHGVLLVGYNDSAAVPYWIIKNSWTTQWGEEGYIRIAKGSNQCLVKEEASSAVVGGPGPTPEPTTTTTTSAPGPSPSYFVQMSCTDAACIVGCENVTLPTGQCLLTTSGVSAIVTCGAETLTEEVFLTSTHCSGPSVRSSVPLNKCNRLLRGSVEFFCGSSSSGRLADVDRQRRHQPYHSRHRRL

For orientation: Ki means a measure of affinity in units of concentration, obtained from inhibition or displacement. `CC(C)C[C@H](NC(=O)c1ccc(N(C)C)cc1)C(=O)N1CC[C@@H]2[C@H]1C(=O)CN2C(=O)[C@@H]1C[C@@H](O)CN1` [Example 218, (3aR,6aS)-4-Dimethylamino-N-{(1S)-1-[4-((2S,4R)-4-hydroxy-pyrrolidine-2-carbonyl)-6-oxo-hexahydro-pyrrolo[3,2-b]pyrrole-1-carbonyl]-3-methyl-butyl}-benzamide]: the inhibition constant Ki was less than 5 µM.
Take `CC(=O)N(C)[C@@H](CC(C)C)C(=O)N1CC(=O)[C@@H]2[C@H]1CCN2C(=O)[C@H](CC(C)C)NC(=O)c1ccc(N(C)C)cc1` [Example 221, (3aR,6aS)-N-((1S)-1-{4-[(2S)-2-(Acetyl-methyl-amino)-4-methyl-pentanoyl]-6-oxo-hexahydro-pyrrolo[3,2-b]pyrrole-1-carbonyl}-3-methyl-butyl)-4-dimethylamino-benzamide]: the Ki is less than 5 µM.
The result for `CC(C)C[C@H](NC(=O)c1ccc(N(C)C)cc1)C(=O)N1CC[C@@H]2[C@H]1C(=O)CN2C(=O)C1(N)CCC1` [Example 223, (3aR,6aS)-N-{(1S)-1-[4-(1-Amino-cyclobutanecarbonyl)-6-oxo-hexahydro-pyrrolo[3,2-b]pyrrole-1-carbonyl]-3-methyl-butyl}-4-dimethylamino-benzamide] reads less than 5 µM; that for `CC(C)C[C@H](NC(=O)c1ccc(N(C)C)cc1)C(=O)N1CC[C@@H]2[C@H]1C(=O)CN2C(=O)C1(N)CCCC1` [Example 224], less than 5 µM.
The same measure for `CC(C)C[C@H](NC(=O)c1ccc(N(C)C)cc1)C(=O)N1CC[C@@H]2[C@H]1C(=O)CN2C(=O)[C@@H](N)C1CCCCC1` [Example 226, (3aR,6aS)-N-{(1S)-1-[4-((2S)-2-Amino-2-cyclohexyl-acetyl)-6-oxo-hexahydro-pyrrolo[3,2-b]pyrrole-1-carbonyl]-3-methyl-butyl}-4-dimethylamino-benzamide]: less than 5 µM; for `CC(C)C[C@H](NC(=O)c1ccc(N(C)C)cc1)C(=O)N1CC[C@@H]2[C@H]1C(=O)CN2C(=O)CN(C)C` [Example 227, (3aR,6aS)-4-Dimethylamino-N-{(1S)-1-[4-(2-dimethylamino-acetyl)-6-oxo-hexahydro-pyrrolo[3,2-b]pyrrole-1-carbonyl]-3-methyl-butyl}-benzamide]: less than 5 µM; for `CC(C)C[C@H](NC(=O)c1ccc(N(C)C)cc1)C(=O)N1CC[C@@H]2[C@H]1C(=O)CN2C(=O)C1CCCO1` (stereo partly drawn) [Example 238, (3aR,6aS)-4-Dimethylamino-N-{(1S)-3-methyl-1-[6-oxo-4-(tetrahydro-furan-2-carbonyl)-hexahydro-pyrrolo[3,2-b]pyrrole-1-carbonyl]-butyl}-benzamide]: less than 5 µM.
The result for `CC(C)C[C@H](NC(=O)c1ccc(N(C)C)cc1)C(=O)N1CC[C@@H]2[C@H]1C(=O)CN2C(=O)CC1CCNCC1` [Example 240] reads less than 5 µM.
Regarding `CC(C)C[C@H](NC(=O)c1ccc(N(C)C)cc1)C(=O)N1CC[C@@H]2[C@H]1C(=O)CN2C(=O)CN1CCNCC1` [Example 241, (3aR,6aS)-4-Dimethylamino-N-{(1S)-3-methyl-1-[6-oxo-4-(2-piperazin-1-yl-acetyl)-hexahydro-pyrrolo[3,2-b]pyrrole-1-carbonyl]-butyl}-benzamide], the Ki was less than 5 µM.
The result for `CC(C)C[C@H](NC(=O)c1ccc(N(C)C)cc1)C(=O)N1CC[C@@H]2[C@H]1C(=O)CN2C(=O)C1CCNCC1` [Example 242, (3aR,6aS)-4-Dimethylamino-N-{(1S)-3-methyl-1-[6-oxo-4-(piperidine-4-carbonyl)-hexahydro-pyrrolo[3,2-b]pyrrole-1-carbonyl]-butyl}-benzamide] reads less than 5 µM; that for `O=C(N[C@@H](CSCc1ccccc1)C(=O)N1CC[C@@H]2[C@H]1C(=O)CN2C(=O)c1ccccc1)c1cccc(Oc2ccccc2)c1` [Example 260, (3aR,6aS)-N-[(1R)-2-(4-Benzoyl-6-oxo-hexahydro-pyrrolo[3,2-b]pyrrol-1-yl)-1-benzylsulfanylmethyl-2-oxo-ethyl]-3-phenoxy-benzamide], less than 5 µM; that for `O=C(N[C@@H](Cc1ccc(O)cc1)C(=O)N1CC[C@@H]2[C@H]1C(=O)CN2C(=O)c1ccccc1)c1cccc2cccnc12` [Example 297, (3aR,6aS)-Quinoline-8-carboxylic acid [(1S)-2-(4-benzoyl-6-oxo-hexahydro-pyrrolo[3,2-b]pyrrole-1-yl)-1-(4-hydroxy-benzyl)-2-oxo-ethyl]-amide], less than 5 µM.
In the case of `O=C(N[C@@H](Cc1ccc(O)cc1)C(=O)N1CC[C@@H]2[C@H]1C(=O)CN2C(=O)c1ccc2ccccc2c1)c1cccc2ccccc12` [Example 302, (3aR,6aS)-Naphthalene-1-carboxylic acid {(1S)-1-(4-hydroxy-benzyl)-2-[4-(naphthalene-2-carbonyl)-6-oxo-hexahydro-pyrrolo[3,2-b]pyrrol-1-yl]-2-oxo-ethyl}-amide], the Ki was less than 5 µM.
As to `CCn1nc(C)cc1C(=O)N[C@@H](Cc1ccc(O)cc1)C(=O)N1CC[C@@H]2[C@H]1C(=O)CN2C(=O)c1ccccc1S(C)(=O)=O` [Example 313, (3aR,6aS)-2-Ethyl-5-methyl-2H-pyrazole-3-carboxylic acid {(1S)-1-(4-hydroxy-benzyl)-2-[4-(2-methanesulfonylbenzoyl)-6-oxo-hexahydropyrrolo[3,2-b]pyrrole-1-yl]-2-oxo-ethyl}-amide], the Ki was less than 5 µM.
The result for `CN(C)c1ccc(C(=O)N[C@@H](Cc2ccc(O)cc2)C(=O)N2CC[C@@H]3[C@H]2C(=O)CN3C(=O)c2cccc([N+](=O)[O-])c2)cc1` [Example 321, (3aR,6aS)-4-Dimethylamino-N-{(1S)-1-(4-hydroxy-benzyl)-2-[4-(3-nitro-benzoyl)-6-oxo-hexahydro-pyrrolo[3,2-b]pyrrole-1-yl]-2-oxo-ethyl}-benzamide] reads less than 5 µM.
The same measure for `CN(C)c1ccc(C(=O)N[C@@H](Cc2ccc(O)cc2)C(=O)N2CC[C@@H]3[C@H]2C(=O)CN3C(=O)c2cccc(F)c2)cc1` [Example 322]: less than 5 µM.
In the case of `O=C(N[C@@H](Cc1ccc(O)cc1)C(=O)N1CC[C@@H]2[C@H]1C(=O)CN2C(=O)c1cccs1)c1cccc(Br)c1` [Example 324, (3aR,6aS)-3-Bromo-N-{(1S)-1-(4-hydroxy-benzyl)-2-oxo-2-[6-oxo-4-(thiophene-2-carbonyl)-hexahydro-pyrrolo[3,2-b]pyrrol-1-yl]-ethyl}-benzamide], the Ki is less than 5 µM.
In the case of `Cc1ccc(C(=O)N2CC(=O)[C@@H]3[C@H]2CCN3C(=O)[C@H](Cc2ccc(O)cc2)NC(=O)c2cccc(Br)c2)cc1` [Example 328, (3aR,6aS)-3-Bromo-N-{(1S)-1-(4-hydroxy-benzyl)-2-[4-(4-methyl-benzoyl)-6-oxo-hexahydro-pyrrolo[3,2-b]pyrrole-1-yl]-2-oxo-ethyl}-benzamide], the Ki was less than 5 µM.
The result for `O=C(N[C@@H](Cc1ccc(O)cc1)C(=O)N1CC[C@@H]2[C@H]1C(=O)CN2C(=O)c1ccccc1)c1ccccc1` [Example 333, (3aR,6aS)-N-[(1S)-2-(4-Benzoyl-6-oxo-hexahydro-pyrrolo[3,2-b]pyrrol-1-yl)-1-(4-hydroxy-benzyl)-2-oxo-ethyl]-benzamide] reads less than 5 µM.
The same measure for `O=C(N[C@@H](Cc1ccc(O)cc1)C(=O)N1CC[C@@H]2[C@H]1C(=O)CN2C(=O)c1ccccc1)c1cccnc1` [Example 336, (3aR,6aS)-N-[(1S)-2-(4-Benzoyl-6-oxo-hexahydro-pyrrolo[3,2-b]pyrrol-1-yl)-1-(4-hydroxy-benzyl)-2-oxo-ethyl]-nicotinamide]: less than 5 µM.
The result for `Cc1ccc(C(=O)N[C@@H](Cc2ccc(O)cc2)C(=O)N2CC[C@@H]3[C@H]2C(=O)CN3C(=O)c2ccccc2)cc1Br` [Example 337, (3aR,6aS)-N-[(1S)-2-(4-Benzoyl-6-oxo-hexahydro-pyrrolo[3,2-b]pyrrol-1-yl)-1-(4-hydroxy-benzyl)-2-oxo-ethyl)-3-bromo-4-methyl-benzamide] reads less than 5 µM; that for `COc1cccc(C(=O)N[C@@H](Cc2ccc(O)cc2)C(=O)N2CC[C@@H]3[C@H]2C(=O)CN3C(=O)c2ccccc2)c1` [Example 338, (3aR,6aS)-N-[(1S)-2-(4-Benzoyl-6-oxo-hexahydro-pyrrolo[3,2-b]pyrrol-1-yl)-1-(4-hydroxy-benzyl)-2-oxo-ethyl]-3-methoxy-benzamide], less than 5 µM; that for `O=C(N[C@@H](Cc1ccc(O)cc1)C(=O)N1CC[C@@H]2[C@H]1C(=O)CN2C(=O)c1ccccc1)c1cccc(OC(F)(F)F)c1` [Example 339, (3aR,6aS)-N-[(1S)-2-(4-Benzoyl-6-oxo-hexahydro-pyrrolo[3,2-b]pyrrol-1-yl)-1-(4-hydroxy-benzyl)-2-oxo-ethyl]-3-trifluoromethoxy-benzamide], less than 5 µM.
As to `O=C(N[C@@H](Cc1cccc(F)c1)C(=O)N1CC[C@@H]2[C@H]1C(=O)CN2C(=O)c1ccccc1)c1cccc(Br)c1` [Example 342, (3aR,6aS)-N-[(1S)-2-(4-Benzoyl-6-oxo-hexahydro-pyrrolo[3,2-b]pyrrol-1-yl)-1-(3-fluoro-benzyl)-2-oxo-ethyl]-3-bromo-benzamide], the Ki is less than 5 µM.
The result for `O=C(N[C@@H](Cc1cc(F)cc(F)c1)C(=O)N1CC[C@@H]2[C@H]1C(=O)CN2C(=O)c1ccccc1)c1cccc(Br)c1` [Example 343, (3aR,6aS)-N-[(1S)-2-(4-Benzoyl-6-oxo-hexahydro-pyrrolo[3,2-b]pyrrol-1-yl)-1-(3,5-difluoro-benzyl)-2-oxo-ethyl]-3-bromo-benzamide] reads less than 5 µM; that for `O=C(N[C@@H](Cc1ccc(F)cc1)C(=O)N1CC[C@@H]2[C@H]1C(=O)CN2C(=O)c1ccccc1)c1cccc(Br)c1` [Example 344, (3aR,6aS)-N-[(1S)-2-(4-Benzoyl-6-oxo-hexahydro-pyrrolo[3,2-b]pyrrol-1-yl)-1-(4-fluoro-benzyl)-2-oxo-ethyl]-3-bromo-benzamide], less than 5 µM.
